Measurements published in patent US8653264B2, “Crystal of erlotinib base and the preparation method thereof” (Zhejiang Huahai Pharmaceutical Co., Ltd., priority 2010, dated 2014).

Key:
stability experiment = format: physicochemical; details: crystal form IV of erlotinib base; conditions not given
[1] = hygroscopicity experiment; format: physicochemical; details: crystal form IV of erlotinib base; conditions not given

change in the stability experiment (stability experiment): did not significantly change
change in the hygroscopicity experiment [1]: did not significantly change
Compound: C#Cc1cccc(Nc2ncnc3cc(OCCOC)c(OCCOC)cc23)c1 [Form IV, N-(3-ethynylphenyl)-6,7-bis(2-methoxyethoxy)quinazolin-4-amine]
